According to article PMC9917099, “The Mycotoxin Patulin Inhibits the Mitochondrial Carnitine/Acylcarnitine Carrier (SLC25A20) by Interaction with Cys136 Implications for Human Health” (International Journal of Molecular Sciences, 2023):

Target: T1, CAC in intact rat liver mitochondria (Rattus norvegicus, UniProt P97521)
T1 construct: the native protein extracted from rat liver mitochondria; from tissue; host or cells: rat liver mitochondria (Triton X-100 extract)
T1 sequence (P97521 1-301): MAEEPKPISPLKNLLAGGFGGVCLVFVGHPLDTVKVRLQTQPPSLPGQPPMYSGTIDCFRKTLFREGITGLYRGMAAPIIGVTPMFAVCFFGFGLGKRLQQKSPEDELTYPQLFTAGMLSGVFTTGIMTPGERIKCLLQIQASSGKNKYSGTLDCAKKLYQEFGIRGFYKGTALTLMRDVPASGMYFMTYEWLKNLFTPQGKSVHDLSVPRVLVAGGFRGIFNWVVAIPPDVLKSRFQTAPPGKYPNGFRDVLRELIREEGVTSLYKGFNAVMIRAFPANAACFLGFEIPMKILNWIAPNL
Assay: Treatment of intact rat liver mitochondria, then solubilization, reconstitution in proteoliposomes and carnitine antiport assay
Type: biochemical
Details: GSH alone, 5 mM, 60 min, intact mitochondria
Protocol: Figure 1 Effect of Patulin on the native carnitine/acylcarnitine carrier (CAC). (A) Dose-response analysis of proteoliposomes reconstituted with the CAC extracted from rat liver mitochondria (0.3 mg of total proteins) and incubated with PAT at the indicated concentrations for 30 min, before measuring the transport activity by adding 0.1 mM [^3H] carnitine for 10 min as described in Materials and Methods. The percentage of residual activity compared to control, without PAT treatment, is reported. The values are the means ± SD from three independent experiments. (B) Rat liver mitochondria (5 mg/100 μL) were incubated or not (control) for 60 min, with Patulin (60 μM) or GSH (5 mM) as indicated. Upon treatment, the unreacted drug was removed by washing the mitochondria in PBS 1X and then 0.3 mg mitochondria were solubilized by 3% TX-100, 10 mM PIPES pH 7.0 and reconstituted in proteoliposomes for transport assay as indicated in (A) and Materials and Methods. Black and white bars indicate without or with the addition of 5 mM dithioerythritol (DTE) 1 min before the transport assay to aliquots of each sample.
The effect of PAT on the CAC at 60 µM concentration was also detected in intact rat liver mitochondria. Upon treatment (60 min), the mitochondria were solubilized in Triton X-100 and 0.3 mg of mitochondrial extract were reconstituted in proteoliposomes for testing the transport activity of CAC (see above). […] Aliquots of intact mitochondria incubated with PAT were treated also with reduced GSH to verify whether this physiological SH-reducing agent was able to reverse the mycotoxin-protein interactions.
The recombinant CAC proteins were reconstituted in proteoliposomes as previously described. Rat liver mitochondria after purification, using the standard procedure of cell disruption and differential centrifugation were solubilized with 3% Triton X-100 in a PIPES buffer (10 mM) at pH 7.0. Herein, the mitochondrial extract (0.3 mg) were reconstituted in the liposomes as above described for the mitochondrial CAC recombinant protein, in the absence of reducing agents. The concentration of intraliposomal carnitine was 15 mM in all samples.
For the transport assay, 550 μL of proteoliposomes were passed through a Sephadex G-75 column in order to remove the external substrate. Six hundred μL of the turbid eluate were collected, divided into samples of 100 μL each, and used for transport measurement by the inhibitor-stop method. Transport was started as homoexchange by adding 0.1 mM [^3H]-carnitine to proteoliposomes containing 15 mM carnitine and, at the indicated time interval, stopped by 1.5 mM NEM (N-ethylmaleimide). The inhibitor was added together with the labelled substrate at time zero in the control samples. After finishing the transport reaction, the external radiolabel substrate was removed by gel filtration chromatography (Sephadex G-75), and the intraliposomal radioactivity was measured by liquid scintillation. Transport was measured at 25 °C. The experimental values were corrected by subtracting the controls. Transport rates were measured in 10 min, i.e., within the initial linear range of the time course.

N[C@@H](CCC(=O)N[C@@H](CS)C(=O)NCC(=O)O)C(=O)O [GSH, glutathione, reference compound]
transport activity compared to control: moderate increase
